Experimental data from the supplement of paper PMC11451515.

Tested on: NOMO1
Experiment: cell viability relative to DMSO control; higher = less cytotoxic
Details: 48 h
Procedure, shortened: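 Cells were incubated for 48 h at 37°C before CellTiter-Glo One luminescence was read. The cells were NOMO1 or SEM (500 cells/well) or P12-Ichikawa (1000 cells/well) leukemia cells, adapted for at least four passages in each medium and seeded in 1536-well plates (5 μl). Dosing used library compounds in DMSO applied by pin over 11 threefold points, 47 μM to 0.79 nM. Viability is the per-plate percentage of DMSO wells, with cell-free wells as background.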

[1] = HPLM + 10% dialyzed FBS, 0.000781 µM
[2] = HPLM + 10% dialyzed FBS, 0.00234 µM
[3] = HPLM + 10% dialyzed FBS, 0.00702 µM
[4] = HPLM + 10% dialyzed FBS, 0.0211 µM
[5] = HPLM + 10% dialyzed FBS, 0.0632 µM
[6] = HPLM + 10% dialyzed FBS, 0.19 µM
[7] = HPLM + 10% dialyzed FBS, 0.569 µM
[8] = HPLM + 10% dialyzed FBS, 1.71 µM
[9] = HPLM + 10% dialyzed FBS, 5.12 µM
[10] = HPLM + 10% dialyzed FBS, 15.4 µM
[11] = HPLM + 10% dialyzed FBS, 46.1 µM
[12] = RPMI 5 mM glucose + 10% FBS, 0.000781 µM
[13] = RPMI 5 mM glucose + 10% FBS, 0.00234 µM
[14] = RPMI 5 mM glucose + 10% FBS, 0.00702 µM
[15] = RPMI 5 mM glucose + 10% FBS, 0.0211 µM
[16] = RPMI 5 mM glucose + 10% FBS, 0.0632 µM
[17] = RPMI 5 mM glucose + 10% FBS, 0.19 µM
[18] = RPMI 5 mM glucose + 10% FBS, 0.569 µM
[19] = RPMI 5 mM glucose + 10% FBS, 1.71 µM
[20] = RPMI 5 mM glucose + 10% FBS, 5.12 µM
[21] = RPMI 5 mM glucose + 10% FBS, 15.4 µM
[22] = RPMI 5 mM glucose + 10% FBS, 46.1 µM
[23] = RPMI 5 mM glucose + 10% dialyzed FBS, 0.000781 µM
[24] = RPMI 5 mM glucose + 10% dialyzed FBS, 0.00234 µM
[25] = RPMI 5 mM glucose + 10% dialyzed FBS, 0.00702 µM
[26] = RPMI 5 mM glucose + 10% dialyzed FBS, 0.0211 µM
[27] = RPMI 5 mM glucose + 10% dialyzed FBS, 0.0632 µM
[28] = RPMI 5 mM glucose + 10% dialyzed FBS, 0.19 µM
[29] = RPMI 5 mM glucose + 10% dialyzed FBS, 0.569 µM
[30] = RPMI 5 mM glucose + 10% dialyzed FBS, 1.71 µM
[31] = RPMI 5 mM glucose + 10% dialyzed FBS, 5.12 µM
[32] = RPMI 5 mM glucose + 10% dialyzed FBS, 15.4 µM
[33] = RPMI 5 mM glucose + 10% dialyzed FBS, 46.1 µM

SMILES | cell viability [1] [%] | cell viability [2] [%] | cell viability [3] [%] | cell viability [4] [%] | cell viability [5] [%] | cell viability [6] [%] | cell viability [7] [%] | cell viability [8] [%] | cell viability [9] [%] | cell viability [10] [%] | cell viability [11] [%] | cell viability [12] [%] | cell viability [13] [%] | cell viability [14] [%] | cell viability [15] [%] | cell viability [16] [%] | cell viability [17] [%] | cell viability [18] [%] | cell viability [19] [%] | cell viability [20] [%] | cell viability [21] [%] | cell viability [22] [%] | cell viability [23] [%] | cell viability [24] [%] | cell viability [25] [%] | cell viability [26] [%] | cell viability [27] [%] | cell viability [28] [%] | cell viability [29] [%] | cell viability [30] [%] | cell viability [31] [%] | cell viability [32] [%] | cell viability [33] [%]
C/C=C(/C)C(=O)O[C@H]1C(C)=C[C@]23C(=O)[C@@H](C=C(CO)[C@@H](O)[C@]12O)[C@H]1[C@@H](C[C@H]3C)C1(C)C | 119 | 127 | 114 | 112 | 93.5 | 69 | 66.4 | 64.7 | 60.6 | 61.5 | 39.3 | 121 | 128 | 121 | 108 | 96 | 79.1 | 67.8 | 65.9 | 66.3 | 69.4 | 51.7 | – | – | – | – | – | – | – | – | – | – | –
CN[C@@H]1[C@H](O)[C@H](NC)[C@H]2O[C@@]3(O)C(=O)C[C@@H](C)O[C@H]3O[C@@H]2[C@H]1O | 123 | 135 | 117 | 113 | 124 | 127 | 128 | 121 | 103 | 87.4 | 42.6 | – | – | – | – | – | – | – | – | – | – | – | 110 | 115 | 115 | 119 | 122 | 121 | 113 | 114 | 119 | 103 | 91.4
O=C(Nc1c(Cl)cncc1Cl)c1ccc(OC(F)F)c(OCC2CC2)c1 | 108 | 126 | 111 | 97.5 | 123 | 105 | 130 | 124 | 109 | 98.5 | 100 | 94.4 | 102 | 101 | 99.1 | 108 | 106 | 120 | 107 | 102 | 103 | 99.7 | 94.5 | 106 | 112 | 101 | 107 | 112 | 106 | 114 | 97.8 | 99.6 | 102
C#C[C@]1(O)CC[C@H]2[C@@H]3CCc4cc(O)ccc4[C@H]3CC[C@@]21C | 101 | 116 | 104 | 104 | 102 | 105 | 109 | 96 | 97.9 | 68 | 51.3 | 97.7 | 93.9 | 99.9 | 95.9 | 105 | 91.9 | 87 | 91.5 | 89 | 85 | 80.4 | 97.2 | 103 | 87.4 | 101 | 99.4 | 106 | 92.4 | 78.3 | 89.1 | 71.3 | 48.4
C[C@@]12C[C@@]3(O)O[C@@H](O1)[C@]1(COC(=O)c4ccccc4)[C@H]3C[C@@]12O[C@@H]1O[C@H](CO)[C@@H](O)[C@H](O)[C@H]1O | 94.6 | 112 | 99.3 | 126 | 124 | 130 | 137 | 113 | 100 | 71.1 | 45.5 | 100 | 95.2 | 109 | 103 | 114 | 105 | 105 | 103 | 98.3 | 109 | 112 | 103 | 91.2 | 94.9 | 103 | 101 | 114 | 93.7 | 107 | 114 | 110 | 91
OC[C@H]1OCC(O1)[N@@]2C=CC(N)=NC2=O (stereo partly drawn) | 115 | 127 | 101 | 105 | 117 | 113 | 131 | 86.7 | 121 | 126 | 94.8 | 114 | 123 | 118 | 116 | 114 | 127 | 118 | 113 | 122 | 108 | 108 | 103 | 133 | 112 | 109 | 125 | 111 | 117 | 113 | 120 | 113 | 113
COc1ccc(C(C)=O)c(O)c1 | 115 | 114 | 109 | 121 | 111 | 93.7 | 98 | 45.9 | 41.4 | 23.9 | 26.2 | 116 | 111 | 119 | 118 | 116 | 127 | 112 | 56.6 | 64.8 | 20.1 | 22.6 | 111 | 115 | 105 | 105 | 124 | 129 | 123 | 75.6 | 59.9 | 25.7 | 24.2
CSCC[C@@H](NC(=O)[C@@H](Cc1ccccc1)NC(=O)CNC(=O)CNC(=O)[C@@H](N)Cc1ccc(O)cc1)C(=O)O | 77.4 | 90.8 | 110 | 28.1 | 110 | 121 | 121 | 104 | 92 | 100 | 109 | 91.8 | 89.3 | 105 | 22.1 | 110 | 103 | 102 | 100 | 95.4 | 101 | 97.9 | 87.1 | 97.4 | 94.6 | 34.8 | 88.3 | 103 | 97.6 | 111 | 99.9 | 113 | 109
S=P(N1CC1)(N1CC1)N1CC1 | 107 | 105 | 99 | 104 | 98.5 | 98.6 | 110 | 97.3 | 92.4 | 104 | 62.6 | 92.8 | 102 | 95.7 | 96.4 | 103 | 95.7 | 92.7 | 95.5 | 101 | 90.2 | 89.8 | 101 | 105 | 95.4 | 91.4 | 104 | 99.6 | 116 | 98.7 | 95.5 | 98.3 | 92.4
CCOC(=O)C/1=C(O)/C(=O)N(CC2=CC=CC=C2)C1 | 95.4 | 113 | 129 | 124 | 110 | 106 | 103 | 122 | 114 | 103 | 95.6 | 102 | 113 | 98.3 | 99.2 | 98.6 | 99.5 | 111 | 95.9 | 95.7 | 95.7 | 103 | 102 | 118 | 110 | 109 | 110 | 115 | 105 | 111 | 91.2 | 103 | 95.1
O=C(O)C1=NC(C(=O)O)CC(/C=C/N2c3cc(O)c(OC4OC(CO)C(O)C(O)C4O)cc3CC2C(=O)O)=C1 (stereo not drawn) | 111 | 111 | 115 | 103 | 117 | 106 | 99.1 | 109 | 98.7 | 107 | 109 | 86.4 | 86.7 | 94.2 | 99.4 | 119 | 108 | 98.4 | 93.5 | 94 | 90.6 | 104 | 104 | 101 | 101 | 113 | 104 | 101 | 94.2 | 98.2 | 92.4 | 104 | 117
OC1CCC(Nc2ncc3nc(Nc4c(F)cc(F)cc4F)n([C@@H]4CCOC4)c3n2)CC1 (stereo partly drawn) | 112 | 119 | 131 | 143 | 126 | 142 | 143 | 134 | 141 | 131 | 128 | 106 | 113 | 108 | 113 | 107 | 118 | 105 | 110 | 125 | 115 | 121 | 102 | 119 | 115 | 119 | 114 | 128 | 122 | 125 | 135 | 131 | 126
CN(NC(=O)CC(=O)NN(C)C(=S)c1ccccc1)C(=S)c1ccccc1 | 85.2 | 101 | 91.7 | 111 | 52.3 | 21.7 | 3.16 | 4.21 | 4.19 | 4.38 | 6.98 | 86 | 80.2 | 97.5 | 95.2 | 53.4 | 16.7 | 3.21 | 3.39 | 4.47 | 6.75 | 15.8 | 83.4 | 89.2 | 82.1 | 94.6 | 39 | 10.7 | 2.4 | 2.7 | 3.68 | 2.79 | 9.44
O=C(Nc1ccc(F)c(C(F)(F)F)c1)Nc1nnc(-c2ccncc2)s1 | 112 | 120 | 127 | 130 | 134 | 136 | 118 | 112 | 118 | 108 | 111 | 123 | 113 | 124 | 106 | 114 | 105 | 121 | 102 | 108 | 107 | 101 | 119 | 124 | 128 | 124 | 125 | 131 | 113 | 128 | 116 | 114 | 100
CC1(C)O[C@@H]2C[C@H]3[C@@H]4CCC5=CC(=O)C=C[C@]5(C)[C@H]4[C@@H](O)C[C@]3(C)[C@]2(C(=O)CO)O1 | 95 | 92.4 | 104 | 90.7 | 119 | 108 | 117 | 98.5 | 95.2 | 91.9 | 101 | 87.2 | 92.5 | 90.4 | 88.7 | 97.4 | 110 | 88.7 | 92.5 | 98.5 | 87.8 | 93.6 | 96.7 | 91.4 | 90.9 | 90.4 | 94.2 | 92.9 | 106 | 109 | 104 | 85.6 | 103
